Measurements: ChEMBL document CHEMBL2384932, “Radiosynthesis and evaluation of [11C]EMPA as a potential PET tracer for orexin 2 receptors” (Bioorg Med Chem Lett, 2013)
Blank lines part the entries; values can stand above or below the compound they belong to.

Columns and labels:
[1] = Lipophilicity, log D of the compound in phosphate buffer at ph 7.4; assay type: physicochemical
[2] = Drug uptake in baboon blood at 4.49 mCi by PET-MR imaging analysis; assay type: ADME; conditions: papio anubis
[3] = tested on: Brain; test: Drug uptake in Sprague-Dawley rat brain at 1.0 to 1.2 mCi, iv after 60 mins by PET-CT scan in presence of non radiolabeled ligand EMPA; assay type: ADME, organism-based; conditions: in vivo, 1 h
[4] = tested on: Kidney; test: Drug uptake in Sprague-Dawley rat kidney at 1.0 to 1.2 mCi, iv after 90 mins by PET-CT scan in presence of non radiolabeled ligand EMPA; assay type: ADME, organism-based; conditions: in vivo, 1.5 h
[5] = Fraction unbound in baboon plasma after 10 mins; assay type: ADME, cell-free; conditions: papio anubis
[6] = tested on: Brain; test: Drug uptake in baboon brain at 4.49 mCi after 80 mins by PET-MR imaging analysis; assay type: ADME; conditions: papio anubis, in vivo
[7] = tested on: Liver; test: Drug uptake in Sprague-Dawley rat liver at 1.0 to 1.2 mCi, iv after 90 mins by PET-CT scan in presence of non radiolabeled ligand EMPA; assay type: ADME, organism-based; conditions: in vivo, 1.5 h
[8] = biological target: T1, Orexin receptor type 2 (Rattus norvegicus) (UniProt P56719); test: Binding affinity to rat brain OX2 receptor assessed per mg of protein
T1 sequence (whole entry): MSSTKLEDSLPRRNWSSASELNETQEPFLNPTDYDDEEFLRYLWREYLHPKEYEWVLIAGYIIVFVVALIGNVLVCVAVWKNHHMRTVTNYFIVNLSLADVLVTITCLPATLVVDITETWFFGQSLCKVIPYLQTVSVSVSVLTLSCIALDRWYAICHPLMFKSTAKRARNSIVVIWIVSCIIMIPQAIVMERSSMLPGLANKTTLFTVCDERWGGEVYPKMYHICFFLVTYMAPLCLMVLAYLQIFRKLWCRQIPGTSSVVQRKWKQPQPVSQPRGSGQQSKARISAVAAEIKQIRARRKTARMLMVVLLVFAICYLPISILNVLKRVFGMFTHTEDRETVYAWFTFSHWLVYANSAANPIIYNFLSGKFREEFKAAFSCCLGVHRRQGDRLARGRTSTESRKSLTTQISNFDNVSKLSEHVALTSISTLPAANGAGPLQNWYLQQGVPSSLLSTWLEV

[9] = Ratio of drug level in brain to plasma of ip dosed mouse after 45 mins; assay type: ADME, organism-based; conditions: read-out: BPR

logD [1]: 1.94 | Drug uptake [2]: Active | Drug uptake [3]: < 0.1% | Drug uptake [4]: Active | fraction unbound at 10 min [5]: 0.113 | Drug uptake [6]: < 0.01% | Drug uptake [7]: Active
Structure (SMILES): CCN(Cc1cccnc1)C(=O)CN(c1ccc(O[11CH3])nc1)S(=O)(=O)c1ccccc1C

Bmax [8]: 6.62 pmol
Structure (SMILES): CCN(Cc1cccnc1)C(=O)CN(c1ccc(OC)nc1)S(=O)(=O)c1ccccc1C

Kp at 0.75 h [9]: 0.7
Structure (SMILES): [3H]c1ccc(CN(CC)C(=O)CN(c2ccc(OC([3H])([3H])[3H])nc2)S(=O)(=O)c2ccccc2C)cn1
